The source of these data is patent US20210324442A1, “In vitro Transcription-Translation Metabolic Networks to Measure Quantity or Activity of Enzymes” (priority 2020, published 2021).

Assay [1] concerns the target T1, phosphoenolpyruvate carboxylase (Escherichia coli, UniProt P00864).
T1 construct: many enzymes which likely retain activity in the lysate-based CFPS reactions consume precious ATP superfluously; endogenous in cells; host or cells: E. coli BL21 Star (DE3) cell extract (lysate)
Description: CFPS yield with raised initial Asp. It is filed as biochemical, E. coli. The following applies: 12 mM Asp compared with conventional 2 mM Asp, one-hour reaction. The source says: The metabolic engineering approach presented in this work may also be useful for modulating protein expression yield or other desired products from cell-free reactions. Indeed, many enzymes which likely retain activity in the lysate-based CFPS reactions consume precious ATP superfluously. For example, GLNS, which is inhibited in this work, consumes ATP in the process of synthesizing Gln. […] Indeed, during the process of completing the work described herein, we learned that phosphoenolpyruvate carboxylase circumvents the production of ATP from PEP, and that its inhibition might improve CFPS performance. Accordingly, we identified Asp as an inhibitor of this enzyme and observed that CFPS initiated with 12 mM Asp compared with the conventional 2 mM Asp increased CFPS yield by 38% over a one-hour reaction (FIG. 8).
(§1) Gln was omitted from Gln-sensing reactions. […] Results were obtained after 60 minutes.

A further assay concerns the target T2, E. coli ASNase (Escherichia coli, UniProt P00805).
T2 construct: purchased
Description: CFPS reactions producing GFP in the presence of E. coli ASNase and ASP. It is filed as biochemical. Particulars: 1.54 IU/mL ASNase + 6.5 mM ASP vs 1.54 IU/mL ASNase. On the procedure:
In FIG. 8, CFPS reactions producing GFP in the presence of E. coli ASNase and ASP. Reported conditions include 0 IU/mL ASNase (no ASNase added), 1.54 IU/mL ASNase, and 1.54 IU/mL ASNase+6.5 mM ASP. […] No plasmid (NP) control tests for the impact of CFPS machinery and possible reaction products if added to a CFPS reaction producing GFP. As such, for the NP control 5 μL of a cellfree reaction product (where no plasmid was added such that no protein expression was templated) was added to a second CFPS reaction producing GFP. […] Error bars represent one standard deviation for n=2 CFPS reactions.

Assay [2] relates to E. coli-based CFPS reactions producing GFP. Nature of the assay: CFPS Gln sensor assay, aqueous samples (GFP reporter). It counts as biochemical. The following applies: 70 mM MSO, Gln omitted as reagent, 1 hr, n=2, read-out: EC50 value (Hill equation fit of GFP response). On the procedure:
Reactions omitted Gln as a reagent but included 70 mM MSO. Aqueous samples of known Gln concentrations were added to the CFPS reaction. On the graph, the x-axis represents the final concentration of Gln in the CFPS reaction (ranging from 0 to 2400 μM). Each data point represents a CFPS reaction after 1 hr with n=2 at each Gln concentration. […] The inset plots linear regression of the data. The solid blue line represents the fit, solid red bands represent the 95% confidence of fit, and dashed black bands represent the 95% confidence range for a single-point prediction.
Example 1: E. coli cell extract containing bacteriophage T7 RNA polymerase was prepared as previously described. Briefly, 5 mL overnight culture of BL21 Star™ (DE3) was added to 100 mL 2xYT. When OD600 reached ˜2.0, culture was transferred to 900 mL 2xYT. 1 L cultures were induced with 1 mM IPTG at OD600 0.4-0.6 and harvested at OD600 ˜2.5. All bacterial cultures were incubated at 37° C. and 280 RPM. Cells were homogenized with three passes at 21000 psi using the EmulsiflexB15 French press homogenizer (Avestin, Ottawa, Calif.) and centrifuged at 12000 RCF for 10 min. Clarified lysate was then incubated at 37° C. and 280 RPM for 30 min. Cell extract was dialyzed using 14 kDa MW cut-off cellulose membrane tubing (MilliporeSigma, Billerica, Mass.) for 4 hr at 4° C. immediately following incubation at 37° C. […]

Assay [3] shares this test system. Nature of the assay: CFPS Gln sensor assay in the presence of human serum. It is filed as biochemical. Particulars: 70 mM MSO, RNAse inhibitor, 14% (v/v) human serum, 1 hr, n=2; read-out: EC50 value (Hill equation fit of GFP response). On the procedure: Reactions omitted Gln as a reagent but contained 70 mM MSO, RNAse inhibitor, and 14% (v/v) human serum with increasing Gln concentrations. The x-axis represents the corresponding Gln concentration in the CFPS reaction. Each data point represents a CFPS reaction after 1 hr with n=2 at each CFPS Gln concentration. […] Solid blue line represents the fit, solid red bands represent the 95% confidence of fit, and dashed black bands represent the 95% confidence range for a single-point prediction.
Example 1: E. coli cell extract containing bacteriophage T7 RNA polymerase was prepared as previously described. Briefly, 5 mL overnight culture of BL21 Star™ (DE3) was added to 100 mL 2xYT. When OD600 reached ˜2.0, culture was transferred to 900 mL 2xYT. 1 L cultures were induced with 1 mM IPTG at OD600 0.4-0.6 and harvested at OD600 ˜2.5. All bacterial cultures were incubated at 37° C. and 280 RPM. Cells were homogenized with three passes at 21000 psi using the EmulsiflexB15 French press homogenizer (Avestin, Ottawa, Calif.) and centrifuged at 12000 RCF for 10 min. Clarified lysate was then incubated at 37° C. and 280 RPM for 30 min. Cell extract was dialyzed using 14 kDa MW cut-off cellulose membrane tubing (MilliporeSigma, Billerica, Mass.) for 4 hr at 4° C. immediately following incubation at 37° C.
as §1

Assay [4] deals with glutamine synthetase (GLNS) (Escherichia coli, UniProt P0A9C5).
glutamine synthetase (GLNS), sequence (P0A9C5 2-469 limits assumed): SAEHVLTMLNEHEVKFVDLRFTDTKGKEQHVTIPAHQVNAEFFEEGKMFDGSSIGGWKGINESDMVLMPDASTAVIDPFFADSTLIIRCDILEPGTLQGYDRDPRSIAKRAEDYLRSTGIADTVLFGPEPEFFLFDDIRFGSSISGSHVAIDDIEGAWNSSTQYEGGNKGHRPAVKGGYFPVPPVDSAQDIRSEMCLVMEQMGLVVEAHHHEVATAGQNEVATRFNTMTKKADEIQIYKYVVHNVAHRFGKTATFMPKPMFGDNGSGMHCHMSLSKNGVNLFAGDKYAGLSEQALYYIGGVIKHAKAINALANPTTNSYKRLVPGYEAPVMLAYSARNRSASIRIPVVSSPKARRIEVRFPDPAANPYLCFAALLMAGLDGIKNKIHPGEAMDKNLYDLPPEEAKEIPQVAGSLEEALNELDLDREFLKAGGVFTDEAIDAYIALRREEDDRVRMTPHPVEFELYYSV
Description: Example 2: Cell-free protein synthesis reactions were formulated in 96-well plates with the following specifications: 25% (v/v) cell extract, 12 nM pY71-sfGFP^37, 10-20 mM magnesium glutamate (concentration adjusted for optimal protein yield), 1 mM 1,4-diaminobutane, 1.5 mM spermidine, 40 mM phosphoenolpyruvate, 10 mM ammonium glutamate, 175 mM potassium glutamate, 2.7 mM potassium oxalate, 0.33 mM nicotinamide adenine dinucleotide, 0.27 mM coenzyme A, 1.2 mM ATP, 0.86 mM CTP, 0.86 mM GTP, 0.86 mM UTP, 0.17 mM folinic acid, 6 mM aspartate, 6 mM asparagine, and 2 mM of the 16 remaining proteinogenic amino acids. Gln was omitted from Gln-sensing reactions. For reactions containing human serum (Gemini Bio Products, Sacramento, Calif.), murine RNAse inhibitor (New England BioLabs, Ipswich MA) was added to a final concentration of 0.8 U/μL CFPS. Reactions were incubated at 37° C. in a BioTek SynergyMX plate reader, shaken for 30 seconds, and analyzed for fluorescence every 4-6 minutes at 480/510 nm excitation/emission wavelengths. Results were obtained after 60 minutes. Assay signal strength was calculated as the ratio of GFP RFU at saturating Gln concentrations to the GFP RFU at 0 μM Gln.

T1 sequence (P00864 whole entry): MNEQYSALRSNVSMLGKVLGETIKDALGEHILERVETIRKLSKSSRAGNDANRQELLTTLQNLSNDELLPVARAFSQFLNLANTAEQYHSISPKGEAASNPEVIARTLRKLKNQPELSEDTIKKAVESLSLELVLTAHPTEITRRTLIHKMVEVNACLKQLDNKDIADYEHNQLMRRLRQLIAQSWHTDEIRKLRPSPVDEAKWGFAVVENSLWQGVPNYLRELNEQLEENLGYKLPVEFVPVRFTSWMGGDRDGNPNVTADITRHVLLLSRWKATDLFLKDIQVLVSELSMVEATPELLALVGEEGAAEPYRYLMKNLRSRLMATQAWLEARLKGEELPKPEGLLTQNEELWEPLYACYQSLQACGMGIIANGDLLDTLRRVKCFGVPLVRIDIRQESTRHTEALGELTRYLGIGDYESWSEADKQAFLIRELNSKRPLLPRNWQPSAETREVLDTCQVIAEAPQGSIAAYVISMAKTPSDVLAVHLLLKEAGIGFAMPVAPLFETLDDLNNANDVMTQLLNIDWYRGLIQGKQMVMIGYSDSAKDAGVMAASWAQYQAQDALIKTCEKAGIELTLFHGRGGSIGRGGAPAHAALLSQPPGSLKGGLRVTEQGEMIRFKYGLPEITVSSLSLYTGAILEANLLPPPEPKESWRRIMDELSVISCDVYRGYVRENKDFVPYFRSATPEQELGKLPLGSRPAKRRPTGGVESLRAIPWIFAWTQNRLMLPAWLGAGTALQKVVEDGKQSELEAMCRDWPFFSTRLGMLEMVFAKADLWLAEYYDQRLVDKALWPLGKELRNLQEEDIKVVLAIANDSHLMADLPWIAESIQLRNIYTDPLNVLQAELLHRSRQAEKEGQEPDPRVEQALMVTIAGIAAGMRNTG
T2 sequence (P00805 23-348): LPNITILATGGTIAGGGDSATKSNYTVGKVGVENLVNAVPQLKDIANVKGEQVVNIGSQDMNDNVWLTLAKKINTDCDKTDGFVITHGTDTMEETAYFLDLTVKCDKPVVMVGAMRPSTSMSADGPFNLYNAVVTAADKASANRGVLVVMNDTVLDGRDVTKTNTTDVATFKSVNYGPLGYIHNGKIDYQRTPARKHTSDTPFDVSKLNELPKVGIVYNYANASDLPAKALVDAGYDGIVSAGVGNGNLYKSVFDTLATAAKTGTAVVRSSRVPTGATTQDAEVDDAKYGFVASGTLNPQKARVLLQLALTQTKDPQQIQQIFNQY

Turning to `N[C@@H](CC(=O)O)C(=O)O` [Asp, L-aspartate], the “increase of CFPS yield” value in assay [1] came out at 38%. In addition, on E. coli ASNase, the “effect of ASP supplementation on ASNase activity” value is recorded as “inhibitory effect”.

As for `NC(=O)CC[C@H](N)C(=O)O` [Gln, L-glutamine], the half-maximal effective concentration (EC50) (in general, the concentration at which the effect is half-maximal) amounted to 154 µM in assay [2] and 100 µM in assay [3].

For the compound `CS(=N)(=O)CC[C@H](N)C(=O)O` (stereo partly drawn) [MSO, Methionine sulfoximine], the “effect on CFPS expression yield” value in assay [4] (concentrations up to 80 mM in the presence of 2 mM Gln) is on record as “little effect”. For the same compound, in assay [4] (increased linearly with increasing MSO concentration up to 70 μM), the “signal-to-noise ratio of the assay” value is on record as around 10.
